According to US20130150376A1, “Novel Sultam Compounds” (PFIZER INC., priority 2010, published 2013):
Counter-ions that a name gives are not always drawn. Like-named read-outs stand apart in the source and are kept apart here.

Target: T1, BACE1 enzyme (soluble, truncated BACE enzyme, BACE1deltaTM96His) (Homo sapiens, UniProt P56817)
T1 construct: soluble, truncated BACE enzyme (BACE1deltaTM96His); His; made in house
Experiment: BACE1 Fluorescent Polarization (FP) Assay
Assay type: biochemical
Settings: geometric mean of 2-4 IC50 determinations unless footnoted (^2: 5-6 determinations; ^4: single determination)
Excerpt: BACE1 Fluorescent Polarization (FP) Assay
The fluorescently tagged synthetic substrate, Biotin-GLTNIKTEEISEISŶEVEFR-C[oregon green]KK-OH can be efficiently cleaved by the beta-secretase enzyme and is therefore useful to assay beta-secretase activity in the presence or absence of inhibitory compounds. The his tagged BACE1 enzyme was affinity purified material from conditioned media of CHO-K1 cells that had been transfected to express soluble, truncated BACE enzyme (BACE1deltaTM96His). Compounds were incubated in a ½ log dose response (from a top concentration of 100 μM) with BACE1 enzyme (0.1 nM final) and the biotinylated fluorescent peptide substrate (150 nM final) in assay buffer containing 100 mM sodium acetate, pH 4.5 (brought to pH with acetic acid), and 0.001% Tween-20. Total reaction volumes of 30 μL were carried out in 384-well black plates (Thermo Scientific 4318). Plates were covered and incubated for 3 hours at 37° C. The reactions were then stopped by addition of 30 μL of 1.5 μM Streptavidin (Pierce, 21125). After a 10 minute incubation at room temperature, plates were read on a PerkinElmer Envision for fluorescence polarization (Ex485 nm/Em530 nm). The activity of the beta-secretase enzyme is detected by changes in the fluorescence polarization (Δ mP) that occur when the substrate is cleaved by the enzyme.

[1] = 11-point curve, read-out: BACE activity, 11-point curve, IC50
[2] = 8-point curve, read-out: BACE activity, 8-point curve, IC50

T1 sequence (P56817 46-457): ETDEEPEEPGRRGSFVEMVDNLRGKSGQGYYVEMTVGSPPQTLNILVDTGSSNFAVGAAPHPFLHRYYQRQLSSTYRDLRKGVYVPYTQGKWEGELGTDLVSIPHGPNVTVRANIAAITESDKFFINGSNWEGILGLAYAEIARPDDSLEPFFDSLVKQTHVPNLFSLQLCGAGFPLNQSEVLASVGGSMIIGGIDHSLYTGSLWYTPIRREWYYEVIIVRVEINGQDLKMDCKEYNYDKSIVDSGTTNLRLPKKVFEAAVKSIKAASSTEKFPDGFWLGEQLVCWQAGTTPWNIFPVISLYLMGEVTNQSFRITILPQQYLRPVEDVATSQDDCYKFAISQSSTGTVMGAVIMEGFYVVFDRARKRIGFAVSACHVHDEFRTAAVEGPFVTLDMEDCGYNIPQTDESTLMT

Row | Structure (SMILES) | IC50 [1] | IC50 [2]
1 | CC(C)Cc1ncoc1CN1CC[C@]2(CC(C)S(=O)(=O)N2c2cccc(F)c2)C[C@@H]1C (mixture of isomers) [Example 2, (5R,7S)-1-(3-Fluorophenyl)-8-[(4-isobutyl-1,3-oxazol-5-yl)methyl]-3,7-dimethyl-2-thia-1,8-diazaspiro[4.5]decane 2,2-dioxide, formate salt] | 4.44 µM | –
2 | C[C@H]1C[C@]2(CCN1Cc1ccc(O)c(C3CCCO3)c1)CCS(=O)(=O)N2c1cccc(F)c1 (mixture of isomers) [Example 61, 4-{[(5R,7S)-1-(3-fluorophenyl)-7-methyl-2,2-dioxido-2-thia-1,8-diazaspiro[4.5]dec-8-yl]methyl}-2-(tetrahydrofuran-2-yl)phenol] | – | < 0.0305 µM
3 | C[C@H]1C[C@]2(CCN1Cc1ccc(O)c(C3CCCO3)c1)CCS(=O)(=O)N2c1cccc(F)c1 (single isomer, unassigned) [Example 46] | 3.01 µM | 0.866 µM
4 | C[C@H]1C[C@]2(CCN1Cc1ccc(O)c(C3CCCO3)c1)CCS(=O)(=O)N2c1cccc(F)c1 (single isomer, unassigned) [Example 47] | 0.249 µM | 0.0471 µM
5 | CC(C)Oc1cc(CN2CC[C@]3(CCS(=O)(=O)N3c3cccc(F)c3)C[C@@H]2C)ccc1O [Example 1, 4-{[(5R,7S)-1-(3-Fluorophenyl)-7-methyl-2,2-dioxido-2-thia-1,8-diazaspiro[4.5]dec-8-yl]methyl}-2-isopropoxyphenol] | – | 0.035 µM
6 | CC(C)Oc1cc(CN2CC[C@]3(CCS(=O)(=O)N3c3cccc(F)c3)C[C@@H]2C)ncc1O [Example 3, 6-{[(5R,7S)-1-(3-Fluorophenyl)-7-methyl-2,2-dioxido-2-thia-1,8-diazaspiro[4.5]dec-8-yl]methyl}-4-isopropoxypyridin-3-ol] | 0.613 µM | 0.0815 µM
7 | Cc1ccsc1-c1cc(CN2CC[C@]3(C=CS(=O)(=O)N3c3cccc(F)c3)C[C@@H]2C)ccc1O [Example 5, 4-{[(5R,7S)-1-(3-fluorophenyl)-7-methyl-2,2-dioxido-2-thia-1,8-diazaspiro[4.5]dec-3-en-8-yl]methyl}-2-(3-methyl-2-thienyl)phenol, hydrochloride salt] | – | 0.000731 µM
8 | CCc1ccccc1-c1cc(CN2CC[C@]3(C=CS(=O)(=O)N3c3cccc(F)c3)C[C@@H]2C)ccc1O [Example 6, 2′-ethyl-5-{[(5R,7S)-1-(3-fluorophenyl)-7-methyl-2,2-dioxido-2-thia-1,8-diazaspiro[4.5]dec-3-en-8-yl]methyl}biphenyl-2-ol] | – | < 0.0042 µM
9 | CCc1ccccc1-c1cc(CN2CC[C@]3(CCS(=O)(=O)N3c3cccc(F)c3)C[C@@H]2C)ccc1O [Example 8, 2′-ethyl-5-{[(5R,7S)-1-(3-fluorophenyl)-7-methyl-2,2-dioxido-2-thia-1,8-diazaspiro[4.5]dec-8-yl]methyl}biphenyl-2-ol] | – | 0.124 µM
10 | C[C@H]1C[C@@]2(C=CS(=O)(=O)N2c2cccc(F)c2)CCN1Cc1ccc(O)c(OC(F)(F)F)c1 [Example 10, 4-{[(5R,7S)-1-(3-fluorophenyl)-7-methyl-2,2-dioxido-2-thia-1,8-diazaspiro[4.5]dec-3-en-8-yl]methyl}-2-(trifluoromethoxy)phenol, hydrochloride salt] | – | 0.181 µM
11 | C[C@H]1C[C@@]2(C=CS(=O)(=O)N2c2cccc(F)c2)CCN1Cc1ccc(O)c(C(F)(F)F)c1 [Example 16, 4-{[(5R,7S)-1-(3-fluorophenyl)-7-methyl-2,2-dioxido-2-thia-1,8-diazaspiro[4.5]dec-3-en-8-yl]methyl}-2-(trifluoromethyl)phenol, hydrochloride salt] | – | 0.322 µM

Next, values leading:

Row | IC50 [1] | IC50 [2] | Structure (SMILES)
12 | – | 0.0533 µM | C[C@H]1C[C@@]2(C=CS(=O)(=O)N2c2cccc(F)c2)CCN1Cc1ccc(O)c(C2CCCO2)c1 (mixture of isomers) [Example 11, 4-{[(5R,7S)-1-(3-fluorophenyl)-7-methyl-2,2-dioxido-2-thia-1,8-diazaspiro[4.5]dec-3-en-8-yl]methyl}-2-(tetrahydrofuran-2-yl)phenol]
13 | 6.46 µM | – | C[C@H]1C[C@]2(CCN1Cc1ncoc1C1CCCO1)CCS(=O)(=O)N2c1cccc(F)c1 (mixture of isomers) [Example 80, (5R,7S)-1-(3-fluorophenyl)-7-methyl-8-{[5-(tetrahydrofuran-2-yl)-1,3-oxazol-4-yl]methyl}-2-thia-1,8-diazaspiro[4.5]decane 2,2-dioxide]
14 | 7.07 µM | – | C[C@H]1CCO[C@H]1c1ocnc1CN1CC[C@]2(C=CS(=O)(=O)N2c2cccc(F)c2)C[C@@H]1C (relative stereo) [Example 69, (5R,7S)-1-(3-fluorophenyl)-7-methy1-8-({5-[cis-3-methyltetrahydrofuran-2-yl]-1,3-oxazol-4-yl}methyl)-2-thia-1,8-diazaspiro[4.5]dec-3-ene 2,2-dioxide]
15 | – | 0.208 µM | C[C@H]1C[C@@]2(C=CS(=O)(=O)N2c2cccc(F)c2)CCN1Cc1ccc(O)c(C2CCCO2)c1 (single isomer, unassigned) [Example 30]
16 | 0.0626 µM | 0.0105 µM | C[C@H]1C[C@@]2(C=CS(=O)(=O)N2c2cccc(F)c2)CCN1Cc1ccc(O)c(C2CCCO2)c1 (single isomer, unassigned) [Example 31]
17 | – | 0.0219 µM | C[C@H]1C[C@@]2(C=CS(=O)(=O)N2c2cccc(F)c2)CCN1Cc1ccc(O)c(C2CCCC2)c1 [Example 7, 2-cyclopentyl-4-{[(5R,7S)-1-(3-fluorophenyl)-7-methyl-2,2-dioxido-2-thia-1,8-diazaspiro[4.5]dec-3-en-8-yl]methyl}phenol]
18 | 0.0779 µM | 0.0235 µM | CC(C)Oc1cc(CN2CC[C@]3(C=CS(=O)(=O)N3c3cccc(F)c3)C[C@@H]2C)ccc1O [Example 9, 4-{[(5R,7S)-1-(3-ftuorophenyl)-7-methyl-2,2-dioxido-2-thia-1,8-diazaspiro[4.5]dec-3-en-8-yl]methyl}-2-isopropoxyphenol]
19 | – | 0.338 µM | CC(C)Cc1ocnc1CN1CC[C@]2(C=CS(=O)(=O)N2c2cccc(F)c2)C[C@@H]1C [Example 12, (5R,7S)-1-(3-fluorophenyl)-8-[(5-isobutyl-1,3-oxazol-4-yl)methyl]-7-methyl-2-thia-1,8-diazaspiro[4.5]dec-3-ene 2,2-dioxide]
20 | – | 0.0184 µM | C[C@H]1C[C@@]2(C=CS(=O)(=O)N2c2cccc(F)c2)CCN1Cc1ccc(O)c(OC2CC2)c1 [Example 13, 2-(cyclopropyloxy)-4-{[(5R,7S)-1-(3-fluorophenyl)-7-methyl-2,2-dioxido-2-thia-1,8-diazaspiro[4.5]dec-3-en-8-yl]methyl}phenol, hydrochloride salt]
21 | – | 0.0425 µM | C[C@H]1C[C@@]2(C=CS(=O)(=O)N2c2cccc(F)c2)CCN1Cc1ccc(O)c(OC2CC2)c1 [Example 14, 2-(cyclopropyloxy)-4-{[(5R,7S)-1-(3-fluorophenyl)-7-methyl-2,2-dioxido-2-thia-1,8-diazaspiro[4.5]dec-3-en-8-yl]methyl}phenol]
22 | 0.478 µM | 0.754 µM | C[C@H]1C[C@@]2(C=CS(=O)(=O)N2c2cccc(F)c2)CCN1Cc1ccc(O)c(Cl)c1 [Example 15, 2-chloro-4-{[(5R,7S)-1-(3-fluorophenyl}-7-methyl-2,2-dioxido-2-thia-1,8-diazaspiro[4.5]dec-3-en-8-yl]methyl}phenol, hydrochloride salt]
23 | 0.908 µM | 0.0849 µM | CC(C)Oc1cccc(CN2CC[C@]3(C=CS(=O)(=O)N3c3cccc(F)c3)C[C@@H]2C)c1 [Example 17, (5R,7S)-1-(3-fluorophenyl)-8-(3-isopropoxybenzyl)-7-methyl-2-thia-1,8-diazaspiro[4.5]dec-3-ene 2,2-dioxide]
24 | – | 0.00186 µM | C[C@H]1C[C@@]2(C=CS(=O)(=O)N2c2cccc(F)c2)CCN1Cc1ccc(O)c(F)c1 [Example 18, 2-fluoro-4-{[(5R,7S)-1-(3-fluorophenyl)-7-methyl-2,2-dioxido-2-thia-1,8-diazaspiro[4.5]dec-3-en-8-yl]methyl}phenol, hydrochloride salt]
25 | – | 0.31 µM | C[C@H]1C[C@@]2(C=CS(=O)(=O)N2c2cccc(F)c2)CCN1Cc1scnc1CC1CCC1 [Example 19, (5R,7S)-8-{[4-(cyclobutylmethyl)-1,3-thiazol-5-yl]methyl}-1-(3-fluorophenyl)-7-methyl-2-thia-1,8-diazaspiro[4.5]dec-3-ene 2,2-dioxide]
26 | – | 0.414 µM | C[C@H]1C[C@@]2(C=CS(=O)(=O)N2c2cccc(F)c2)CCN1Cc1ncoc1-c1cccnc1 [Example 22, (5R,7S)-1-(3-fluorophenyl)-7-methyl-8-[(5-pyridin-3-yl-1,3-oxazol-4-yl)methyl]-2-thia-1,8-diazaspiro[4.5]dec-3-ene 2,2-dioxide, hydrochloride salt]
27 | 1.45 µM | 0.428 µM | C[C@H]1C[C@@]2(C=CS(=O)(=O)N2c2cccc(F)c2)CCN1Cc1ncoc1-c1cncnc1 [Example 23, (5R,7S)-1-(3-fluorophenyl)-7-methyl-8-[(5-pyrimidin-5-yl-1,3-oxazol-4-yl)methyl]-2-thia-1,8-diazaspiro[4.5]dec-3-ene 2,2-dioxide, hydrochloride salt]
